Assay [1] can be described thus: microbe, parasite or virus in culture. Conditions: Mycobacterium tuberculosis, 72 h, read-out: pIC50 (converted).
Assay [2] can be described thus: microbe, parasite or virus in culture. Conditions: Mycobacterium tuberculosis, 96 h, read-out: pIC50 (converted).

Experimental findings from ChEMBL document CHEMBL3988442, “University of Dundee, Small-Polar-MMV Screening Library” (2021) are described below.

For `O=C(CN1CCNCC1)NCCSc1ccc(Cl)cc1`, the IC50 in assay [1] was 177 µM; in assay [2] it was 110 µM.

On to `OCCNCCNCc1ccc(-c2ccccc2)o1`, for which the figures for the IC50 in assay [1] and in assay [2] were 159 µM and 29.2 µM, respectively.

Regarding `CC(C)(C)C(=O)CCN1CCCCC1`, the figures for the IC50 in assay [1] and in assay [2] were 204 µM and 290 µM, respectively.

With `Cn1nc(CN2CCCN(C3CCCC3)CC2)c2c(Cl)cccc21`, the results for the IC50 in assay [1] and in assay [2] were 44.8 µM and 39.8 µM, respectively.

In the case of `CC(C)(C)OC(=O)N1CCN(C2CCC(N)CC2)CC1` (centres undefined), the IC50 in assay [1] and in assay [2] was greater than 501 µM in each case.

As for `Cn1ccc(CNC(=O)NCC2CC2)c1`, the IC50 in assay [1] and in assay [2] was greater than 501 µM in each case.

Take `OCC(O)CSCCc1ccccc1Cl` (centres undefined): the IC50 is 136 µM in assay [1] and 473 µM in assay [2].

Consider `CC(C)(C)c1ccc2c(c1)C(N)C(=O)N2` (centres undefined), for which the values for the IC50 in assay [1] and in assay [2] were 377 µM and 260 µM, respectively.

Take `CCSc1nnc(-c2ccc[nH]2)o1`: the figures for the IC50 in assay [1] and in assay [2] were 169 µM and 188 µM, respectively.

For `FC(F)COCCn1nnc(-c2ccsc2)n1`, the IC50 was 255 µM in assay [1] and 56.4 µM in assay [2].

On to `COc1ccc(C(=O)NC(C)Cn2cccn2)c(O)c1` (centres undefined), for which the IC50 in assay [1] was 256 µM; in assay [2], 276 µM.

Consider `NCCCN1CCN(c2ccccc2F)CC1`, for which the IC50 in assay [1] and in assay [2] was greater than 501 µM each time.

Turning to `O=C(COc1ccc(F)cc1)Nc1ccon1`, the results for the IC50 in assay [1] and in assay [2] were 186 µM and greater than 501 µM, respectively.

With `NC1CCCc2occc21` (centres undefined), the IC50 in assay [1] was 142 µM; in assay [2], 245 µM.

For the compound `COCCC1(CNC(=O)NCC2CCCS2)CCCC1` (centres undefined), the IC50 in assay [1] and in assay [2] was greater than 50.1 µM throughout.

In the case of `CC(C)[C@@H]1CN(C(=O)NCc2ccco2)C[C@H]1N(C)C`, the IC50 in assay [1] and in assay [2] was greater than 50.1 µM each time.

Take `CC(C)COCC(O)CNc1nnc(C(C)C)s1` (centres undefined): the figures for the IC50 in assay [1] and in assay [2] were 111 µM and 86.9 µM, respectively.

Consider `N#Cc1nc(NCCSCCCO)ccc1Cl`, for which the figures for the IC50 in assay [1] and in assay [2] were 221 µM and 418 µM, respectively.

`Cc1ccc(C(=O)Nc2cnn(C)c2)cn1`: the IC50 in assay [1] and in assay [2] was greater than 501 µM in each case.

Turning to `CCCn1nnnc1NCc1ccc(F)cc1`, the results for the IC50 in assay [1] and in assay [2] were 37.8 µM and 19.8 µM, respectively.

For the compound `CN(Cc1ccccc1)CC1(O)CCCN(CCC2CCCCC2)C1=O` (centres undefined), the IC50 in assay [1] and in assay [2] was greater than 50.1 µM each time.

As for `CCOc1ccc2c(c1)C=C(C(=O)NC)CO2`, the IC50 in assay [1] is 174 µM; in assay [2], 230 µM.

Take `CC(=O)c1ccc(Cl)c(S(=O)(=O)NC(CN)C2CC2)c1` (centres undefined): the IC50 in assay [1] is 116 µM; in assay [2] it was 111 µM.

In the case of `COc1ccccc1CN1CCC(N)CC1`, the IC50 in assay [1] is 130 µM; in assay [2], greater than 501 µM.

On to `Cn1ccnc1N1CCN(c2ccc(C#N)cn2)CC1`, for which the IC50 in assay [1] and in assay [2] was greater than 501 µM each time.

Turning to `CCC1CN(C)c2ccccc2CN1CCC(=O)NC` (centres undefined), the IC50 in assay [1] and in assay [2] was greater than 501 µM each time.

For the compound `CC(NC(=O)CNc1cc(F)cc(Br)c1)C(=O)N(C)C` (centres undefined), the figures for the IC50 in assay [1] and in assay [2] were 289 µM and greater than 501 µM, respectively.

As for `COc1cc(OC)cc(N2CCCNCC2)c1`, the IC50 in assay [1] is 112 µM; in assay [2], 150 µM.

Consider `NCC(=O)N1CCCC(CCc2ccc(F)c(F)c2)C1` (centres undefined), for which the values for the IC50 in assay [1] and in assay [2] were 190 µM and 183 µM, respectively.

Regarding `O=C(Nc1ccnc(CO)c1)c1ccc(F)cc1I`, the values for the IC50 in assay [1] and in assay [2] were 367 µM and 433 µM, respectively.

In the case of `CCCC(=O)N(CCCN1CCOCC1)c1nc2c(C)ccc(Cl)c2s1`, the IC50 was 12.8 µM in assay [1] and 19.2 µM in assay [2].

As for `CC(C)N(C)S(=O)(=O)N(Cc1cccs1)Cc1cccs1`, the IC50 in assay [1] was 24.8 µM; in assay [2] it was greater than 50.1 µM.

`COc1ccc(NC(=O)COc2ccccc2F)cn1`: the IC50 in assay [1] is 213 µM; in assay [2], greater than 501 µM.

As to `Clc1ccc(N2CCN(Cc3ncc[nH]3)CC2)nc1`, the values for the IC50 in assay [1] and in assay [2] were 311 µM and greater than 501 µM, respectively.

For `O=S(=O)(CCN1CCC[C@H]1CO)c1ccccc1`, the figures for the IC50 in assay [1] and in assay [2] were 198 µM and greater than 501 µM, respectively.

As to `O=C(Nc1cccc(CO)n1)Nc1ccccc1Cl`, the IC50 is 246 µM in assay [1] and greater than 501 µM in assay [2].

As for `CC(C)NC(=O)Nc1cc(C(F)(F)F)c[nH]c1=O`, the IC50 was 92.8 µM in assay [1] and 109 µM in assay [2].

For `COc1ccc(C(=O)N(C)CCn2cccn2)cc1`, the IC50 in assay [1] and in assay [2] was greater than 501 µM in each case.

For the compound `Cc1nc(N2CCCC2)nc2c1CCN(Cc1ccco1)CC2`, the IC50 is 4.72 µM in assay [1] and 4.23 µM in assay [2].

Turning to `COc1cc(N2CCNCC2)ccc1F`, the figures for the IC50 in assay [1] and in assay [2] were 281 µM and greater than 501 µM, respectively.

In the case of `CNS(=O)(=O)c1ccc(C(=O)NCc2ccccc2)o1`, the IC50 was 151 µM in assay [1] and greater than 501 µM in assay [2].

In the case of `O=C(CN(C1=NCCCC1)c1ccccc1)c1ccc(OC(F)F)cc1`, the IC50 was 39.3 µM in assay [1] and 24.6 µM in assay [2].

Regarding `CC(C)Oc1cccc(CN(C)C(=O)Cc2ccon2)c1`, the IC50 in assay [1] and in assay [2] was greater than 50.1 µM in each case.

On to `Cc1csc(NC(=O)C(C)Oc2ccc3c(c2)OCO3)n1` (centres undefined), for which the IC50 in assay [1] is 30.5 µM; in assay [2], 1.63 µM.

Turning to `CN1N=C(C(=O)NCc2ccc(Cl)cc2)CCC1=O`, the IC50 in assay [1] was 26.9 µM; in assay [2], 38.8 µM.

On to `CCCc1nc(N2CC[C@@H](c3ccc4c(c3)OCO4)[C@H](O)C2)no1`, for which the results for the IC50 in assay [1] and in assay [2] were 44.3 µM and greater than 50.1 µM, respectively.

Take `Cn1nc(CCN)c2ccccc21`: the IC50 in assay [1] was 57.8 µM; in assay [2] it was 197 µM.

Take `Cn1cc(NC(=O)c2ccc(Br)s2)cc1C(N)=O`: the IC50 in assay [1] is 341 µM; in assay [2] it was 285 µM.

Consider `O=C(NCCNc1ccc(C(F)(F)F)cn1)c1ccc(Cl)cc1F`, for which the IC50 in assay [1] is 25.1 µM; in assay [2], 19.3 µM.

For the compound `NC(=O)Nc1cccc(C(=O)Nc2ccc(Cl)cn2)c1`, the figures for the IC50 in assay [1] and in assay [2] were 126 µM and 132 µM, respectively.

For the compound `Cc1cc(C)c(C#N)c(N2CCC(Cc3ccccc3)CC2)n1`, the IC50 in assay [1] and in assay [2] was greater than 50.1 µM throughout.

`O=C(NCc1ccc(Br)o1)[C@@H]1CCCO1`: the IC50 in assay [1] is 242 µM; in assay [2] it was greater than 501 µM.

Turning to `COC[C@@H]1CN(C)C(=O)[C@@H]2CCN(Cc3ccco3)CC[C@H]12`, the IC50 in assay [1] and in assay [2] was greater than 50.1 µM in each case.

Consider `Fc1cc(Cl)cnc1N1CCCNCC1`, for which the IC50 in assay [1] is 34.3 µM; in assay [2] it was greater than 501 µM.

For `O=C1CCC(Nc2nc(-c3ccccc3)ns2)CN1` (centres undefined), the IC50 was greater than 501 µM in assay [1] and 286 µM in assay [2].

`CCOc1cccc(Cn2cnc(CC)cc2=O)n1`: the IC50 in assay [1] and in assay [2] was greater than 501 µM each time.

Consider `CCOC(=O)CCC(=O)c1ccc2c(c1)OCCO2`, for which the IC50 in assay [1] is 209 µM; in assay [2] it was 199 µM.

As for `Cc1ccc(N2CCN(C(=O)CCC(F)(F)F)C(C)C2)cc1` (centres undefined), the IC50 in assay [1] and in assay [2] was greater than 50.1 µM in each case.

In the case of `CSc1nccc(N2CCC3(CCCN(Cc4ccc(F)cc4)C3)C2)n1` (centres undefined), the IC50 in assay [1] was 27.2 µM; in assay [2] it was 25.2 µM.

Regarding `CN(Cc1c(F)cccc1Cl)C(=O)CNC(=O)C1CC1`, the values for the IC50 in assay [1] and in assay [2] were 237 µM and 71 µM, respectively.

Turning to `CCc1nc(CN2CCCN(Cc3noc(C4CC4)n3)CC2)cs1`, the IC50 in assay [1] and in assay [2] was greater than 50.1 µM in each case.

For the compound `CN(Cc1cnccn1)S(=O)(=O)c1ccc(C(F)(F)F)nc1`, the IC50 in assay [1] and in assay [2] was greater than 50.1 µM throughout.

Regarding `CNc1nnc(-c2ccccc2)s1`, the IC50 in assay [1] and in assay [2] was greater than 501 µM in each case.

With `O=C(c1cc(C2CC2)on1)N1CCCN(C2CC2)CC1`, the IC50 in assay [1] and in assay [2] was greater than 501 µM each time.

Consider `CCn1nc(C)c2nc(C)nc(NCCc3ccccc3)c21`, for which the IC50 in assay [1] was 32.5 µM; in assay [2] it was greater than 50.1 µM.

For `CN(C)S(=O)(=O)NC1CCCOc2c(Cl)cccc21` (centres undefined), the IC50 in assay [1] and in assay [2] was greater than 501 µM in each case.

For `NC(=O)C1CCCN(CCc2ccccc2)C1` (centres undefined), the IC50 in assay [1] and in assay [2] was greater than 501 µM in each case.

In the case of `Cc1n[nH]c(C)c1CN(C)C(C(=O)O)c1c(F)cccc1OC(C)C` (centres undefined), the IC50 in assay [1] and in assay [2] was greater than 50.1 µM each time.

In the case of `COCCNc1nc(-c2ccc(S(N)(=O)=O)cc2)cs1`, the IC50 was 207 µM in assay [1] and greater than 501 µM in assay [2].

In the case of `CCC(CO)NC(=O)Cc1ccc(NC(=O)CC2=CCCCC2)cc1` (centres undefined), the IC50 in assay [1] and in assay [2] was greater than 50.1 µM each time.

Take `CNc1cc2c(nn1)CCN(C(=O)c1cccc3c1OCCO3)C2`: the IC50 in assay [1] and in assay [2] was greater than 50.1 µM throughout.

Consider `CC1COC2(CCN(C(=O)c3ccc(Cl)s3)CC2)O1` (centres undefined), for which the values for the IC50 in assay [1] and in assay [2] were 25.7 µM and 45.1 µM, respectively.

For `COc1ccc(C(=O)CCN(C)C)cc1OC`, the IC50 in assay [1] is 276 µM; in assay [2] it was 285 µM.

With `COC(=O)c1ccc(C(=O)NCc2ccc(Br)cc2)cn1`, the IC50 in assay [1] was 24.8 µM; in assay [2], 25.6 µM.

As to `NCc1cccc(S(=O)(=O)NCc2cccc(F)c2)c1`, the figures for the IC50 in assay [1] and in assay [2] were 232 µM and greater than 501 µM, respectively.

Regarding `CC(CNC(=O)c1cnccn1)Oc1cccc(Br)c1` (centres undefined), the IC50 is 0.211 µM in assay [1] and greater than 50.1 µM in assay [2].

In the case of `c1cnnc(N2CCCC2CNCc2nc3ccccc3o2)c1` (centres undefined), the figures for the IC50 in assay [1] and in assay [2] were 29.6 µM and 32.7 µM, respectively.

On to `CCN(CC)CCn1cnc(-c2ccccc2)c1-c1ncc[nH]1`, for which the IC50 in assay [1] is greater than 50.1 µM; in assay [2] it was 27.2 µM.

Take `COC(=O)CCCC(=O)N1CCCc2ccccc2C1`: the results for the IC50 in assay [1] and in assay [2] were 180 µM and greater than 501 µM, respectively.

As to `O=C(CSc1cnn[nH]1)Nc1ccc(Cl)cn1`, the IC50 in assay [1] was 99.4 µM; in assay [2] it was greater than 501 µM.

Consider `O=C1NC(=O)c2c(O)cccc21`, for which the figures for the IC50 in assay [1] and in assay [2] were 196 µM and 254 µM, respectively.

`CN(C)C(=O)c1csc(N2CCCCC2)n1`: the values for the IC50 in assay [1] and in assay [2] were 46.6 µM and 58.7 µM, respectively.
